Experimental data as given in patent EP4635969A1, “NOVEL GLUCOCORTICOID, METHOD FOR PREPARING SAME, AND USE THEREOF” (Tianjin Pharmaceutical Biotechnology Co., Ltd., priority 2022, dated 2024).

Key:
[1] = test system: dry eye syndrome model New Zealand rabbits; test: Dry eye syndrome experiment (benzalkonium chloride model): corneal fluorescein sodium staining; type: in vivo, male New Zealand White rabbits; details: compared with the model group
IL-17 = test: Psoriasis experiment (imiquimod model): inflammatory cytokine in serum (ELISA); type: in vivo, mice; details: compared with the model group
[2] = test system: inflammatory cytokines IL-6 and IL-12; test: Anti-asthma pharmacodynamic experiment: inflammatory cytokines in bronchoalveolar lavage fluid (ELISA); type: in vivo, female BALB/c mice; details: compared with the model group
[3] = test system: intraocular pressure of guinea pigs; test: Adverse reactions of continuous ocular administration: intraocular pressure; type: in vivo
Outline: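 Guinea pigs (300-350 g, both sexes) dosed bilaterally with 5 mg/5 mL ophthalmic suspensions, saline as blank; intraocular pressure measured before dosing and on days 7, 14, 21 and 28.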

[4] = target: T1, glucocorticoid receptor (GR) (Homo sapiens, UniProt P04150); test: Assay for agonist activity on glucocorticoid receptor (luciferase reporter, HEK293 cells transfected with pBIND-GR plasmid); type: cell-based
T1 sequence (P04150 521-777): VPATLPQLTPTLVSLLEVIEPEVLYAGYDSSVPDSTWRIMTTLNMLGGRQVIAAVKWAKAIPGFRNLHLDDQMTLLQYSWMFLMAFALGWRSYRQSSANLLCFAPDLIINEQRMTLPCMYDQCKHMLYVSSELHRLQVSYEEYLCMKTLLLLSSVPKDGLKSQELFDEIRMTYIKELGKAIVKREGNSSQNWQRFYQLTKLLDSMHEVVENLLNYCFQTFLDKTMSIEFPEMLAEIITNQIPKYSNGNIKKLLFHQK
Outline: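 Readout is luciferase luminescence, with EC50 derived by nonlinear fitting. Compounds ran at 10 concentrations (4-fold steps, top 10 µM, duplicate wells) on pBIND-GR-transfected HEK293 cells in phenol red-free DMEM plus 5% charcoal-stripped serum; 0.1% DMSO served as blank.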

uveitis model rats = test: Anti-uveitis pharmacodynamic experiment (LPS model): ocular pathological score; type: in vivo, male SD rats; details: compared with the model group
Procedure: Fifty male SD rats underwent a one-week adaptive feeding period. […] Groups 2 to 5 were used to establish rat uveitis models by single subcutaneous injection of 1 mg/kg LPS (Salmonella; Sigma; Lot No. 0000164114) into the plantar tissue of the hindpaw. Salmonella endotoxin was dissolved in normal saline to prepare an injection solution at a concentration of 2 mg/mL, which was injected subcutaneously at 1 mg/kg into the plantar tissue of one paw of the rats. Group 1 was injected with an equal volume of normal saline.
At the end of the experiment, photos of the rats' eyes were taken using a slit-lamp microscope, and the differences in ocular lesions of rats among groups were compared and analyzed.

[5] = Stability in animal lung tissue homogenate, skin tissue homogenate and aqueous humor; type: in vitro ADME
[6] = test system: dry eye syndrome model New Zealand rabbits; test: Dry eye syndrome experiment (benzalkonium chloride model): tear film break-up time; type: in vivo, male New Zealand White rabbits; details: compared with the model group
Procedure: Positive control drug: Fluorometholone Eye Drops (specification: 5 mL/5 mg; Santen Pharmaceutical (CHINA) Co., Ltd.; Lot No.: 1FM6625) was used as the positive control drug and stored at room temperature protected from light until use.
Thirty male New Zealand White rabbits (conventional grade) were prepared. Six rabbits were randomly selected as the blank control group, and the remaining animals were administered 0.1% benzalkonium chloride to the left eye twice daily (morning and evening) , 10 µL/animal each time. On day 6 of modeling, tear secretion was measured using phenol red cotton threads to determine whether the model was successfully established. […] During the administration, all animals except the blank control group were administered 10 µL of 0.1% benzalkonium chloride to the left eye once daily to maintain dry eye symptoms..
• Test time: D3, D7, D15; • Test animals: All animals were tested before grouping; all enrolled surviving animals were tested after administration; • Test method: 1% Fluorescein sodium was dropped onto the inner side of the rabbit's lower eyelid, 10 µL/animal. The rabbit's eyes were closed and gently massaged to evenly distribute the fluorescein sodium on the eye surface. The rabbit's eyes were then sequentially placed under a slit lamp. The tear film break-up time was observed and recorded as the time from eye opening to the appearance of the first dark spot. If no dark spot appeared, the time was calculated as 60 seconds.
The normality and homogeneity of variance were tested by Levene's test. If there was no statistical significance (P > 0.05), one-way analysis of variance (ANOVA) was used for statistical analysis. If ANOVA was statistically significant (P ≤ 0.05), LSD test (parametric method) was used for comparative analysis. If the variance was heterogeneous (P ≤ 0.05), Kruskal-Wallis test was used. If the Kruskal-Wallis test was statistically significant (P ≤ 0.05), Dunnett's test (nonparametric method) was used for comparative analysis.

[7] = test system: inflammatory cytokines (TNF-α); test: Anti-uveitis pharmacodynamic experiment (LPS model): inflammatory cytokines in aqueous humor (ELISA); type: in vivo, male SD rats; details: values not given
Procedure: Pharmacological Example 5. Pharmacodynamic Experiment on Anti-Uveitis
Test samples: Compounds 23 and 26 were prepared as 5 mg/5 mL ophthalmic suspensions with reference to the formulation of Fluorometholone Eye Drops, and stored at room temperature protected from light until use.
Positive control drug: Fluorometholone Eye Drops (specification: 5 mL/5 mg; Santen Pharmaceutical (CHINA) Co., Ltd.; Lot No. : J20180068) was used as the positive control drug and stored at room temperature protected from light until use.
Fifty male SD rats underwent a one-week adaptive feeding period. The animals were randomly divided into 5 groups: Group 1 served as the blank control group, and Groups 2 to 5 were the model group, fluorometholone group, compound 23 group, and compound 26 group, respectively. Groups 2 to 5 were used to establish rat uveitis models by single subcutaneous injection of 1 mg/kg LPS (Salmonella; Sigma; Lot No. 0000164114) into the plantar tissue of the hindpaw. Salmonella endotoxin was dissolved in normal saline to prepare an injection solution at a concentration of 2 mg/mL, which was injected subcutaneously at 1 mg/kg into the plantar tissue of one paw of the rats. Group 1 was injected with an equal volume of normal saline.
After modeling, 40 µL of normal saline was administered to the eyes (bilateral) of the rats in the blank control group and model group, and 40 µL of the corresponding drugs were administered to the eyes (bilateral) of the […] in the compound 23 group, compound 26 group, and positive drug fluorometholone group, 3 times a day for 2 days. Table 8. Animal grouping and drug administration dosages
Thirty hours after modeling, aqueous humor was collected from both eyes of rats, and partial eyeball tissues of rats were collected. The level of the inflammatory cytokines (TNF-α) was detected using a rat ELISA assay kit.
Statistical analysis was performed using SPSS software. Measurement data were expressed as mean ± standard deviation. One-way ANOVA was used for intergroup comparisons. For data with homogeneous variance, LSD test was used; for data with heterogeneous variance, Dunnett-t test was used. A value of P < 0.05 was considered statistically significant.

[8] = GR agonist EC50 (nM), HEK293 cells transfected with pBIND-GR, luciferase signal
[9] = Nuclear receptor enzyme activity (nM) GR, EC50 of agonist activity, HEK293 reporter cells

Compound | inflammatory response on the ocular surface / ocular symptoms [1] | level of IL-17 / inflammatory cytokines in psoriasis model mice (IL-17) | Effects on inflammatory cytokines in bronchoalveolar lavage fluid of mice [2] | intraocular pressure after continuous ocular administration [3] | EC50 [4, 8] [nM] | ocular abnormalities / ocular pathological score (uveitis model rats) | stability in animal lung tissue homogenate, skin tissue homogenate, and aqueous humor [5] | tear film break-up time [6] | inflammatory cytokines in aqueous humor [7] | EC50 [4, 9] [nM]
C[C@]12C=CC(=O)C=C1CC[C@H]1[C@@H]3C[C@H]4OC(c5ccc(CSC6CCOC6=O)cn5)O[C@@]4(C(=O)CO)[C@@]3(C)C[C@H](O)[C@@]12Cl (stereo partly drawn) [Compound 51, (6aS,6bR,7S,8aS,8bS,11aR,12aS,12bS)-6b-Chloro-7-hydroxy-8b-(2-hydroxyacetyl)-6a,8a-dimethyl-10-(5-(((2-oxotetrahydrofuran-3-yl)thio)methyl)pyridin-2-yl)-1,2,6a,6b,7,8,8a,8b,11a,12,12a,12 b-dodecahydro-4H-naphtho[2',1':4,5]indeno[1,2-d][1,3]dioxol-4-one] | significantly alleviated the ocular symptoms in dry eye syndrome model New Zealand rabbits | significantly inhibited inflammatory cytokines in the skin of psoriasis model mice | pharmacological effects similar to those of compound 23 | no abnormal intraocular pressure observed | 0.82 | significantly improved ocular abnormalities | relatively stable | significantly increased the tear film break-up time | suppressed inflammatory cytokines in aqueous humor | 
C[C@]12C=CC(=O)C=C1CC[C@H]1[C@@H]3C[C@H]4OC(c5ccc(CSC6CCOC6=O)nc5)O[C@@]4(C(=O)CO)[C@@]3(C)C[C@H](O)[C@@]12F (stereo partly drawn) [Compound 47, (6aS,6bR,7S,8aS,8bS,11aR,12aS,12bS)-6b-Fluoro-7-hydroxy-8b-(2-hydroxyacetyl)-6a,8a-dimethyl-10-(6-(((2-oxotetrahydrofuran-3-yl)thio)methyl)pyridin-3-yl)-1,2,6a,6b,7,8,8a,8b,11a,12,12a,12 b-dodecahydro-4H-naphtho[2',1':4,5]indeno[1,2-d][1,3]dioxol-4-one] | significantly alleviated the ocular symptoms in dry eye syndrome model New Zealand rabbits | significantly inhibited inflammatory cytokines in the skin of psoriasis model mice | pharmacological effects similar to those of compound 23 | no abnormal intraocular pressure observed | 0.34 | significantly improved ocular abnormalities | relatively stable | significantly increased the tear film break-up time | suppressed inflammatory cytokines in aqueous humor | 0.34
C[C@]12C=CC(=O)C=C1CC[C@H]1[C@@H]3C[C@H]4OC(c5ccc(CNC6COC(=O)C6)cc5)O[C@@]4(C(=O)CO)[C@@]3(C)C[C@H](O)[C@@]12F (stereo partly drawn) [Compound 21, (6aS,6bR,7S,8aS,8bS,11aR,12aS,12bS)-6b-Fluoro-7-hydroxy-8b-(2-hydroxyacetyl)-6a,8a-dimethyl-10-(4-(((5-oxotetrahydrofuran-3-yl)amino)methyl)phenyl)-1,2,6a,6b,7,8,8a,8b,11a,12,12a,12b-dodecahydro-4H-naphtho[2',1':4,5]indeno[1,2-d][1,3]dioxol-4-one] | significantly alleviated the ocular symptoms in dry eye syndrome model New Zealand rabbits | significantly inhibited inflammatory cytokines in the skin of psoriasis model mice | pharmacological effects similar to those of compound 23 | no abnormal intraocular pressure observed | 0.63 | significantly improved ocular abnormalities | relatively stable | significantly increased the tear film break-up time | suppressed inflammatory cytokines in aqueous humor | 
C[C@]12C=CC(=O)C=C1[C@@H](F)C[C@H]1[C@@H]3C[C@H]4OC(c5ccc(CSC6CCOC6=O)cc5)O[C@@]4(C(=O)OCF)[C@@]3(C)C[C@H](O)[C@@]12F (stereo partly drawn) [Compound 36, Fluoromethyl (2S,6aS,6bR,7S,8aS,8bS,11aR,12aS,12bS)-2,6b-difluoro-7-hydroxy-6a,8a-dimethyl-4-oxo-10-(4-( ((2-oxotetrahydrofuran-3-yl)thio)methyl)phenyl)-1,2,4,6a,6b,7,8,8a,11a,12,12a,12b-dodecahydro-8bH-naphtho[2',1':4,5]indeno[1,2-d][1,3]dioxole-8b-carboxylate] | significantly alleviated the ocular symptoms in dry eye syndrome model New Zealand rabbits | significantly inhibited inflammatory cytokines in the skin of psoriasis model mice | pharmacological effects similar to those of compound 23 | no abnormal intraocular pressure observed | 0.12 | significantly improved ocular abnormalities | relatively stable | significantly increased the tear film break-up time | suppressed inflammatory cytokines in aqueous humor | 0.12
C[C@]12C=CC(=O)C=C1[C@@H](F)C[C@H]1[C@@H]3C[C@H]4OC(c5ccc(CSC6CCOC6=O)cc5)O[C@@]4(C(=O)SCF)[C@@]3(C)C[C@H](O)[C@@]12F (stereo partly drawn) [Compound 34, S-(Fluoromethyl) (2S,6aS,6bR,7S,8aS,8bS,11aR,12aS,12bS)-2,6b-difluoro-7-hydroxy-6a,8a-dimethyl-4-oxo-10-(4-( ((2-oxotetrahydrofuran-3-yl)thio)methyl)phenyl)-1,2,4,6a,6b,7,8,8a,11a,12,12a,12b-dodecahydro-8bH-naphtho[2',1':4,5]indeno[1,2-d][1,3]dioxole-8b-carbothioate] | significantly alleviated the ocular symptoms in dry eye syndrome model New Zealand rabbits | significantly inhibited inflammatory cytokines in the skin of psoriasis model mice | pharmacological effects similar to those of compound 23 | no abnormal intraocular pressure observed | 0.1 | significantly improved ocular abnormalities | relatively stable | significantly increased the tear film break-up time | suppressed inflammatory cytokines in aqueous humor | 0.1
